In data set [1] the test system is Sox-2. Put plainly: Western blotting, Sox-2 expression in HNC-TIC-like oral stem cells. The note with it: ALDH1+CD44+-1 and ALDH1+CD44+-2 cell lines, 0, 12.5, 25 and 50 μg/ml BP, 24 hours, FIG. 3. It counts as cell-based. Here is the method:
(§1) It has been known that CD44, CD133, Sox-2 (sex-determining region Y protein (SRY)-related high-mobility group box 2) and Oct4 (octamerbinding transcription factor 4) proteins all are stemness-maintenance markers of cancer stem cells and participate in the regulation of the self-renewal and differentiation of cancer stem cells. MiaPaCa-2 cell line (i.e., a cell line of pancreatic cancer cells) was treated with different concentrations (0, 12.5, 25, and 50 μg/ml) of BP for 24 hours, and then, proteins were extracted from the cells to conduct Western blotting to determine the expressions of Sox-2, CD133 and CD44 proteins in the BP-treated MiaPaCa-2 cells. Yet another. HNC-TIC-like oral stem cells (i.e., ALDH1^+CD44^+-1 cell line or ALDH1^+CD44^+-2 cell line) were treated with different concentrations (0, 12.5, 25, and 50 μg/ml) of BP for 24 hours, and then, proteins were extracted from the cells to conduct Western blotting to determine the expressions of Sox-2 and Oct4 proteins in the BP-treated HNC-TIC-like oral stem cells (i.e., ALDH1^+CD44^+-1 cell line and ALDH1^+CD44^+-2 cell line).
A general note: Immunoblotting shows a protein as a band on a membrane.

The subject of data set [2] is HNC-TIC-like oral stem cells (ALDH1+CD44+-1 cell line and ALDH1+CD44+-2 cell line). Put plainly: MTT assay, viability of HNC-TIC-like oral stem cells. The data set is classed as cell-based. The note with it: ALDH1+CD44+-1 and ALDH1+CD44+-2 cell lines, 0, 25, 50 and 100 μg/ml BP, 24 hours, FIG. 1. Here is the method: (§2) To investigate the effect of BP on inhibiting the growth of cancer stem cells, NHOKs (normal human oral keratinocytes) and HNC-TIC (head and neck cancer-derived tumor initiating cell)-like oral stem cells (i.e., ALDH1^+CD44^+-1 cell line or ALDH1^+CD44^+-2 cell line) were treated with different concentrations (0, 25, 50 and 100 μg/ml) of BP for 24 hours, and then, an MTT assay was utilized to analyzed the viabilities of NHOKs and HNC-TIC-like oral stem cells (i.e., ALDH1^+CD44^+-1 cell line and ALDH1^+CD44^+-2 cell line).
Background: Tetrazolium dyes change colour on reduction, which living cells bring about.

Data set [3] concerns HNC-TIC-like oral stem cells (ALDH1+CD44+-1 cell line or ALDH1+CD44+-2 cell line). In words: Transwell invasion assay. It counts as cell-based. The text has this: In this research, the effect of BP on inhibiting the migration and invasion of cancer stem cells was investigated by a transwell invasion assay system (i.e., Transwell® system, purchased from Corning, UK) with a polycarbonate filter membrane of 8-μm pore size (purchased from Corning, UK). First, the polycarbonate filter membrane was coated with Matrigel™ (purchased from BD Pharmingen, USA), and then, the coated membrane was placed in the […] of the transwell invasion assay system. Then, the lower chamber was filled with 10% serum-containing medium. On the other hand, HNC-TIC-like oral stem cells (i.e., ALDH1^+CD44^+-1 cell line or ALDH1^+CD44^+-2 cell line) were treated with different concentrations (0, 25 and 50 μg/ml) of BP for 24 hours, and then, the treated cells of each group was cultured in the upper chamber which was filled with serum-free medium, at a cell density of […] cells/100 μl for 24 hours. […] The invasion cancer cells of each group were counted and photographed over five visual fields of the membrane with the use of a 100-fold magnification under a microscope. The relative invasion ability of cells of each experimental group was calculated based on the result of the group treated with 0 μg/ml of BP.

The test system of data set [4] is ALDH. Put plainly: ALDEFLUOR flow cytometry analysis of ALDH activity. It counts as cell-based. The note with it: group without DEAB addition, 0, 25 and 50 μg/ml BP, 24 hours, FIG. 4. Here is the method: ALDH protein is also an important stemness-maintenance marker of cancer stem cells and participates in the regulation of the self-renewal and differentiation of cancer stem cells. HNC-TIC-like oral stem cells (i.e., ALDH1^+CD44^+-1 cell line or ALDH1^+CD44^+-2 cell line) were treated with different concentrations (0, 25 and 50 μg/ml) of BP for 24 hours, and then, 1×10^5 cells obtained from each group were separately suspended in 50 μl of a stem cell detection kit (i.e., ALDEEFLUOR array kit, purchased from […] Technologies Inc., Vancouver, Canada) buffer and the cell suspension of each group was separately added with ALDEFLUOR to a final concentration of 1 μM. Thereafter, a sample of each group was stained by […] and then analyzed by flow cytometry analysis to determine the ALDH activity of HNC-TIC-like oral stem cells (i.e., ALDH1^+CD44^+-1 cell line and ALDH1^+CD44^+-2 cell line).
The above experimental procedure was repeated, but the cell suspension of each group was further added with N,N-diethylaminobenzaldehyde (DEAB, i.e., an inhibitor of ALDH) to a final concentration of 150 μM of DEAB separately.
On the technique in general: In flow cytometry, cells or beads pass a laser one at a time.

The test system of data set [5] is Oct4. Put plainly: Western blotting, Oct4 expression in HNC-TIC-like oral stem cells. The data set is classed as cell-based. The note with it: ALDH1+CD44+-1 and ALDH1+CD44+-2 cell lines, 0, 12.5, 25 and 50 μg/ml BP, 24 hours, FIG. 3. Here is the method: as §1
For data set [6], the system named is HNC-TIC-like oral stem cells (ALDH1+CD44+-1 cell line or ALDH1+CD44+-2 cell line). Put plainly: Soft agar colony formation assay. The data set is classed as cell-based. Here is the method: In this research, a soft agar colony formation assay was used to investigate the effect of BP on inhibiting the tumor initiating activity of cancer stem cells. First, HNC-TIC-like oral stem cells (i.e., ALDH1^+CD44^+-1 cell line or ALDH1^+CD44^+-2 cell line) were treated with different concentrations (0, 25 and 50 μg/ml) of BP for 24 hours, and then, the treated cells of each group was separately seeded in the top agar [containing DMEM (Dulbecco's Modified Eagle's Medium medium), 10% (v/v) Fetal Calf Serum (FCS) and 0.3% (w/v) agar] (purchased from Sigma-Aldrich) at an initial cell number of 2×10^4. On the other hand, a six-well culture dish was coated with the bottom agar [containing DMEM, 10% (v/v) FCS and 0.6% (w/v) agar](purchased from Sigma-Aldrich), 2 ml for each well. After the bottom agar was solidified, each group of the top agar (containing oral cancer stem cells) was respectively added onto the bottom agar in different wells of the dish, 2 ml for each well. […] Lastly, the bottom agar was stained with 0.005% crystal violet, the number of colonies (with a diameter ≥100 μm) was counted over five fields per well with the use of a microscope, and those fields were photographed. The relative colony-forming ability of cells of each experimental group was calculated based on the result of the group treated with 0 μg/ml of BP.

Data set [7] has as its system CD44. In words: Western blotting, CD44 expression in MiaPaCa-2 cells. The data set is classed as cell-based. The note with it: MiaPaCa-2 cells, 0, 12.5, 25 and 50 μg/ml BP, 24 hours, FIG. 2. Here is the method: as §1
In data set [8] the test system is HNC-TIC-like oral stem cells stably transfected with GFP-tagged constructs. Put plainly: Tumor initiating activity animal experiment (subcutaneous GFP-tagged HNC-TIC-like oral stem cells). The data set is classed as in vivo, BALB/c nu/nu mice. Here is the method:
In this research, the effect of BP on inhibiting the tumor initiating activity of cancer stem cells was further investigated by animal experiments. First, 5-6 weeks old BALB/c nu/nu mice (weight 18-22 g) were bred under the same condition for 4 weeks. Then, HNC-TIC-like oral stem cells stably transfected with GFP-tagged constructs were injected (1×10^4 cells/0.1 mL/mouse) subcutaneously into the axilla of mice. After tumors reached 100 mm^3, mice were grouped into one control group and two experimental groups (three groups in total, n=3 per group). Then, one experimental group was injected daily with 100 mg/kg of BP for 6 days and another experimental group was injected daily with 200 mg/kg of BP for 6 days. The control group was injected daily with a vehicle (without BP) for 6 days. Ten days after the injection of BP or vehicle, the length and width were measured every 2 days (22 days in total), and then, the average tumor volume was calculated according to the following Formula 1. At the same time, the GFP signal (i.e., green fluorescence) of each group was detected and photographed by the IVIS Imaging system. The GFP intensity of each group was analyzed by Image-Pro Plus software. [length×width^2]/2 (unit: mm^3) Formula 1: […]

The test system of data set [9] is Sox-2. Put plainly: Western blotting, Sox-2 expression in MiaPaCa-2 cells. The data set is classed as cell-based. The following applies: MiaPaCa-2 cells, 0, 12.5, 25 and 50 μg/ml BP, 24 hours, FIG. 2. Here is the method:
as §1

Data set [10] has as its system CD133. In words: Western blotting, CD133 expression in MiaPaCa-2 cells. The note with it: MiaPaCa-2 cells, 0, 12.5, 25 and 50 μg/ml BP, 24 hours, FIG. 2. It counts as cell-based. Here is the method:
as §1

The subject of data set [11] is NHOKs (normal human oral keratinocytes). In words: MTT assay, viability of NHOKs. The data set is classed as cell-based. The note with it: 24 hours. Here is the method:
as §2

Consider `CCCC=C1OC(=O)c2ccccc21` [BP, butylidenephthalide], for which the “expression of Sox-2 protein” value in data set [1] and in data set [9] was “significantly decreased along with the increment in the concentration of BP” each time. For the same compound, in [2], the “viability of HNC-TIC-like oral stem cells” value is reported as “decreased along with the increment in the concentration of BP”. Moreover, in [3] (0, 25 and 50 μg/ml BP for 24 hours, then 24 hours transwell, FIG. 5A), the “number of cells on the polycarbonate filter membrane” value is reported as “significantly reduced along with the increment in the concentration of BP”. The relative invasion ability entry in [3] (0, 25 and 50 μg/ml BP, relative to 0 μg/ml group, FIG. 5B) was “decreased along with the increment in the concentration of BP”. Further, the “number of live cells with ALDH activity” value in data set [4] is “increased along with the increment in the concentration of BP”. The “expression of Oct4 protein” value in data set [5] is recorded as “significantly decreased along with the increment in the concentration of BP”. Also, the “number of colonies in the bottom agar” value in data set [6] (0, 25 and 50 μg/ml BP for 24 hours, 4 weeks culture, FIG. 6A) was “significantly decreased along with the increment in the concentration of BP”. The relative colony-forming ability result in [6] (0, 25 and 50 μg/ml BP, relative to 0 μg/ml group, FIG. 6B) is given as “decreased along with the increment in the concentration of BP”. In addition, the “expression of CD44 protein” value in [7] is reported as “significantly decreased along with the increment in the concentration of BP”. The tumor volume entry in data set [8] (100 mg/kg and 200 mg/kg BP groups, daily for 6 days, compared to control group, FIG. 7B) is on record as “decreased over a period of time”. For the same compound, the GFP intensity entry in data set [8] (100 mg/kg and 200 mg/kg BP groups, daily for 6 days, compared to control group, FIG. 7C, 7D) is recorded as “significantly decreased”. Also, in [8] (100 mg/kg or 200 mg/kg BP injected daily for 6 days, FIG. 7A), the “body weight of mice” value is given as “didn't change significantly”. The “expression of CD133 protein” value in data set [10] is given as “significantly decreased along with the increment in the concentration of BP”. Moreover, the “viability of NHOKs” value in data set [11] (0, 25, 50 and 100 μg/ml BP, MTT, FIG. 1) is given as “did not decrease along with the increment in the concentration of BP”. Moreover, the “cytotoxicity to normal cells” value in data set [11] (NHOKs, up to 100 μg/ml BP) is “no cytotoxicity to normal cells”.

These data come from patent publication US10987339B2, “Uses of butylidenephthalide” (EVERFRONT BIOTECH INC., priority 2015, dated 2021).
